# Experiments:
# [1] = tested on: DTH mice; assay: Delayed hypersensitive response animal model (DTH); format: in vivo; conditions: for thickness difference of swelling on ears: FIG. 1, DTH mice; for weight difference of ear slices: FIG. 2, DTH mice
# Description: [4] Delayed Hypersensitive Response Animal Model (DTH)
# 1) The sensitization was induced by topical application of 20 μL of 0.5% (v/v) DNFB in acetone: olive oil (4:1) onto each rear paw of mice on day 0 and 1;
# 2) Excipient and testing compounds were given by the oral route 1 day before challenge and then once a day for 2 days (days 8-10);
# 3) The mice were challenged by application of 10 μL of 0.5% (v/v) DNFB on the inner and outer surfaces of the right ear on day 9;
# 4) The increase in the ear patch weight (8-mm punches) and ear thickness between the left and right ear was measured 30-48 h after challenge.
# [2] = tested on: mice arthritis induced by bovine collagen type II; assay: Mice arthritis model induced by bovine collagen type II; format: in vivo, DBA/1 mice; conditions: for scorings of the arthritis degree: FIG. 3 and FIG. 4, with and without the compound; for swelling of the mice' joints: oral, p<0.05
# [3] = tested on: response lymphocytes in MLR; assay: Homologous and heterogeneous mixed lymphocyte proliferation reaction (MLR); format: cell-based, C57BL/6 and Balb/c mice; conditions: read-out: EC50, inhibition of proliferation of the response lymphocytes in MLR
# Source text: [3] Homologous and Heterogeneous Mixed Lymphocyte Proliferation Reaction (MLR)
# 1) C57BL/6 and Balb/c mice were killed by cervical dislocation, and their spleens were collected aseptically and levigated into a single cell suspension. After removing the erythrocytes, the cell concentration was adjusted to 6×10^6/mL with RPMI-1640 medium containing 10% FBS.
# 2) The spleen cells of C57BL/6 mice as the response cells and the spleen cells of Balb/c mice (irradiated with Co60, 3000 rads) as the stimulus cells were mixed in equal volumes.
# 3) 100 μL cell mixture, 100 μL testing sample were added into a 96-well plate. For the control group, 100 μL medium containing 10% serum was added. And single culture controls of the two kinds of cells were set.
# 4) The cell cultures were incubated in 5% CO2 incubator at 37 °C for 3, 4 or 5 days. 25 μL ^3H diluent (i.e. […] [^3H]-thymidine) was added one day before the termination of the incubation.
# 5) After the incubation was terminated, the plate was freezed in a −20[…] refrigerator.
# 6) The cells were harvested on a glassfiber film with a cell harvestor (HARVESTER96′, TOMTEC), and the incorporation of [^3H]-thymidine in DNA was measured with a liquid scintillation counter (MicroBeta Trilux®, PerkinElmer) to indicate the state of cell proliferation.
# [4] = tested on: T-cell proliferation (Con A); assay: Lymphocyte proliferation test, T-cell proliferation stimulated with Con A; format: cell-based, Balb/c mice; parameters: concentration or dose not given beside the values; conditions: concentration without any cytotoxicity; screened at 10, 1 and 0.1 μm
# Description: (§1) Experimental animals: inbred Balb/c male mice, 6-8 weeks old.
# (§2) RPMI-1640 culture solution (Roswell Park Memorial Institure-1640 medium, from GibcoBRL, Life Technologies, USA) with 10% fetal bovine serum (FBS), 100 U/mL penicillin, 100 μg/mL streptomycin, 10 mM HEPES (4-(2-hydroxyethyl)-1-piperazineethane sulfonic acid) and 50 μM 2-ME (2-Mercaptoethanol).
# (§3) Stimulant: Concanavalin (ConA), and bacterial Lipopolysaccharide (LPS, from Escherichia Coli 055: B5), diluted with RPMI-1640 culture solution to suitable concentration before using.
# (§4) [2] Lymphocyte Proliferation Test
# (§5) 1) Mice were killed by cervical dislocation, and their spleens were collected aseptically and prepared into a single cell suspension. The cell concentration was adjusted to 4×10^6/mL with RPMI-1640 medium containing 10% FBS.
# (§6) 2) 100 μL cell suspension, 50 μL testing sample solution, 50 μL ConA or LPS solution were added into a 96-well plate, and for the control group, 50 μL medium containing 10% FBS was added. The total volume was 200 μL.
# (§7) 3) The cell culture was incubated in 5% CO2 incubator at 37 °C for 48 hours, and 0.5 μCi [^3H]-thymidine (25 μL/well) was added into each well 7-8 hours before the termination of the incubation.
# (§8) 4) After the incubation was terminated, the cells were harvested on a glassfiber film with a cell harvestor (HARVESTER96®, TOMTEC), and after scintillation fluid was added, the incorporation of [^3H]-thymidine in the cell DNA was measured with a liquid scintillation counter (MicroBeta Trilux®, PerkinElmer) to indicate the state of cell proliferation.
# [5] = tested on: B-cell proliferation (LPS); assay: Lymphocyte proliferation test, B-cell proliferation stimulated with LPS; format: cell-based, Balb/c mice; conditions: concentration without any cytotoxicity; screened at 10, 1 and 0.1 μm
# Description: as §1, §2, §3, §4, §5, §6, §7, §8
Compound,inhibiting rate to T-cell proliferation (Con A) [4] [%],inhibiting rate to B-cell proliferation (LPS) [5] [%],also measured
"CC1CCC2C(C)C(OCCN)OC3OC4(C)CCC1C32OO4 (stereo not drawn) [Example 1, 2′-amino arteether (β type)]",65,73,"thickness difference of swelling on ears [1]: obviously reduced the swelling degree on ears; weight difference of ear slices [1]: obviously reduced the weight of swelling ears; inhibiting rate of swelling of the ear of mice compared with the control group ([1]; oral, 50 mg/kg, p<0.01): 56.5%; scorings of the arthritis degree [2]: can prevent and cure the mice arthritis induced by bovine collagen type II and inhibit the swelling of the sicked joints; swelling of the mice' joints ([2]; 1 mg/kg): obviously reduce the swelling of the mice' joints; EC50 [3]: 3480 ± 720 nM"
"CC1CCC2C(C)C(OCC(O)CN)OC3OC4(C)CCC1C32OO4 (stereo not drawn) [Example 2, 3′-amino-2′-hydroxy-artemisinin propyl ether (β type)]",48,48,
"CNCC(O)COC1OC2OC3(C)CCC4C(C)CCC(C1C)C24OO3 (stereo not drawn) [Example 3, 3′-methylamino-2′-hydroxy-artemisinin propyl ether (β type)]",47,51,
"CC1CCC2C(C)C(OCC(O)C(N)c3ccccc3)OC3OC4(C)CCC1C32OO4 (stereo not drawn) [Example 8, 3′-phenyl-3′-amino-2′-hydroxy-artemisinin propyl ether (β type)]",13,42,
"CC1CCC2C(C)C(OCC(O)CN3CCCC3)OC3OC4(C)CCC1C32OO4 (stereo not drawn) [Example 11, 3′-pyrrolidinyl-2′-hydroxy-artemisinin propyl ether (β type)]",48,99,"thickness difference of swelling on ears [1]: obviously reduced the swelling degree on ears; weight difference of ear slices [1]: obviously reduced the weight of swelling ears; inhibiting rate of swelling of the ear of mice compared with the control group ([1]; oral, 100 mg/kg, p<0.01): 50.5%"
"CC1CCC2C(C)C(OCC(O)CN3CCCCC3)OC3OC4(C)CCC1C32OO4 (stereo not drawn) [Example 12, 3′-piperidyl-2′-hydroxy-artemisinin propyl ether (β type)]",47,47,
"CC1CCC2C(C)C(OCC(O)CNC(C)(C)C)OC3OC4(C)CCC1C32OO4 (stereo not drawn) [Example 14, 3′-tert-butylamino-2′-hydroxy-artemisinin propyl ether (β type)]",52,81,"thickness difference of swelling on ears [1]: obviously reduced the swelling degree on ears; weight difference of ear slices [1]: obviously reduced the weight of swelling ears; inhibiting rate of swelling of the ear of mice compared with the control group ([1]; oral, 50 mg/kg, p<0.01): 52.2%; scorings of the arthritis degree [2]: can prevent and cure the mice arthritis induced by bovine collagen type II and inhibit the swelling of the sicked joints; swelling of the mice' joints ([2]; 0.5 mg/kg): obviously reduce the swelling of the mice' joints; EC50 [3]: 670 ± 12 nM"
"CC1CCC2C(C)C(OCC(O)C(c3ccccc3)N3CCCCC3)OC3OC4(C)CCC1C32OO4 (stereo not drawn) [Example 16, 3′-phenyl-3′-piperidyl-2′-hydroxy-artemisinin propyl ether (β type)]",0,51,
"CC1CCC2C(C)C(OCC(O)C(c3ccccc3)N(C)C)OC3OC4(C)CCC1C32OO4 (stereo not drawn) [Example 17, 3′-phenyl-3′-dimethylamino-2′-hydroxy-artemisinin propyl ether (β type)]",6,24,
"CC1CCC2C(C)C(OCC(O)C(NC(C)(C)C)c3ccccc3)OC3OC4(C)CCC1C32OO4 (stereo not drawn) [Example 18, 3-phenyl-3′-tert-butylamino-2′-hydroxy-artemisinin propyl ether (β type)]",9,26,
cyclosporine A [reference compound],,,inhibiting rate of swelling of the ear of mice compared with the control group ([1]; 5 mg/kg): 40.6%

# Source: patent US8129426B2, “Water-soluble artemisinin derivatives, their preparation methods, the pharmaceutical compositions and the use thereof” (priority 2005, dated 2012)
